Values quoted from earlier work as cited in patent USRE41289E1, “Ultrashort acting hypnotic barbiturates” (ARYx Therapeutics, Inc., priority 2000, dated 2010).

Settings: in vivo

For `CN1C(=O)NC(=O)C(C)(C2=CCCCC2)C1=O` (stereo not shown) [hexobarbital], the half-life of elimination is listed as 2.7 to 7 h.
